Patent US20230172925A1, “SKIN-CARE COMPOSITIONS AND USES THEREOF” (AHAVA - DEAD SEA LABORATORIES LTD., priority 2019, published 2023)

Experiments:
Format in all cases: cell-based
[1] = test system: MatTek EFT-400 full thickness tissues; experiment: DNA microarray gene expression in skin equivalents, complex vs individual ingredients (Example 5); parameters: key to Genes up and downregulation in pathway: + = up-regulated; − = down-regulated; *non-significant down-regulation, thus, regulation is considered as non-affected (NA); conditions: for Up-Regulated Genes (number): cut off of two fold change of adjusted Fold Change, 48 hours
Description: MatTek EFT-400 full thickness tissues were used as the model for this study. Upon arrival, the full thickness tissues were placed into 6 wells plates with 2 ml of culture media and incubated overnight at 37±2° C. and 5±1% CO2. After this overnight incubation the culture media was replaced with 5 ml of fresh media and the tissues were treated topically with the test materials prepared in distilled water as follows:
After the application of the test materials the tissues were incubated at 37±2° C. and […] for 48 hours.
At the end of the treatment period, the tissues were rinsed and transferred to a 2 ml centrifuge tube containing 700 μl of lysis buffer and homogenized. After centrifuging at 14,000×g for 10 minutes at 4° C. the supernatant from each tube was transferred to a new 1.5 ml tube and mixed with and equal volume of 64% ethanol. After mixing the solutions was transferred to glass fiber filter cartridges and the cartridges were loaded into a 1.5 ml collection tube centrifuged for 1 minute at 14,000 RPM in a Napco 2002 Microcentrifuge with a DA-6T fixed angle rotor. The flow through was discarded and any remaining mixture was loaded into the filter cartridge and the centrifugation process was repeated until all of the mixture had been processed. The filter was then washed to remove any residual cellular debris from the RNA bound to the glass fibers by subsequently applying 700 μl of wash solution 1 (1 time) and 500 μl of wash solution 2 (2 times) to the filter cartridge and centrifuging at 14,000 RPM for 1 minute to pass each wash through the cartridge. After each wash, the flow through was discarded. After the final wash one final spin was performed without wash solution to remove any residual wash solution in the filter cartridge. The RNA bound to the glass fibers within the cartridge was then eluted by applying 40 μl of TE buffer (10 mM Tris-HCl, 1 mM EDTA, preheated to 70-80° C.) to the cartridge and centrifuging the cartridge in a new collection tube at 14,000 RPM for one minute. The elution process was then repeated a second time using 20 μl of TE buffer.
First Strand cDNA Synthesis: To start the first strand synthesis, 10 μl of total RNA for each sample was added to a 600 μl PCR tube and the total volume of liquid in the tube will be adjusted to 11 μl with DEPC H2O. Next, 1 μl of T7 Oligo(dT) primer was added and the tube was incubated in a water bath at 70±2° C. for 10 minutes to denature the RNA and then placed on ice to allow the primers to anneal to the poly A ends of the mRNA. After cooling 2 μl of 10× first strand buffer, 1 μl of RNAse inhibitor and 4 μl of dNTP mix were added to each tube, and the tube was incubated at 42° C. in a hybridization oven (Labnet Problot). As soon as the tube was heated, 1 μl of Reverse Transcriptase was added and the tubes were returned to 42±2° C. for 2 hours. At the end of the two hours the tubes were briefly centrifuged to collect all of the fluid at the bottom of the tube and then placed on ice.
Two tubes were prepared for the labeling process, one for Cy3 labeling (green) and one for Cy5 labeling (red). To the Cy3 tube 2 μg of aRNA prepared from the untreated/control sample (the actual color assignment for each sample is not important, but for consistency Cy3 is normally used for the untreated sample) and enough DEPC H2O was added to bring the total volume up to 4 μl. To the Cy5 tube 2 μg of aRNA prepared from the sample treated with the test material and enough DEPC H2O was added to bring the total volume up to 4 μl. To both tubes 5 μl of ASAP labeling buffer was added along with 1 μl of the specific dye for the tube (Cy3 or Cy5). The tubes were incubated for 15 minutes at 85±2° C. At the end of the 15 minutes the tubes were placed on ice to cool them and then add 2.5 μl of ASAP stop solution was added to each tube.

[2] = test system: TNFα; experiment: Human skin organ culture with UVB stressor, TNFα secretion in the medium; conditions: UVB 200 mJ/cm2; irradiated sample = 100% (53±30 pg/ml); complex, DSE 3.0%, β-Caroten 15.6 ppm
Description: (§1) Topical exposure till 48 hours in total (24 hr recovery following topical application+24 hr after exposure to UVB irradiation) with UVB radiation as stressor on human skin model
(§2) The following general procedure was used in the study:
(§3) Day 1: Topical application of 3 μl of each sample solution on the epidermis of each skin explant. Incubate for 24 hours. SDS 10% was applied only once, and was not farther irradiated with UVB.
(§4) Day 2: Skin explants were washed once with PBS and irradiated with UVB lamp at 200 mJ/cm2. After radiation it was incubated for 30 min and then topically apply each treatment (sample solution) again. Control was not irradiated under UVB light. UVB radiated control was without any treatment except radiation.
(§5) Day 3: Viability and Caspase3 activity were measured for the epidermis layer. The medium was collected for cytokines test.
FIG. 4 illustrates the TNFα secretion results in the medium as observed with 2 to 4 repetition of the tests. In FIG. 4 the TNFα secretion of the irradiated sample “UVB” was selected as 100% and it equals 53±30 pg/ml.

[3] = test system: IL-1α; experiment: Human skin organ culture with UVB stressor, IL-1α secretion in the medium; conditions: UVB; OSM 0.5%, β-Caroten 15.6 ppm
Description: as §1, §2, §3, §4, §5
FIG. 5 illustrates the IL-1α secretion results in the medium as observed with 3 to 4 repetition of the tests. In FIG. 5 the IL-1α secretion of the irradiated sample “UVB” was selected as 100% and it equals 8.1±1.0 pg/ml.

[4] = KEGG_NUCLEOTIDE_EXCISION_REPAIR
[5] = KEGG_SIGNALING_PATHWAYS_REGULATING_PLURIPOTENCY_OF_STEM_CELLS
[6] = WIKI_ASSEMBLY_OF_COLLAGEN_FIBRILS_AND_OTHER_MULTIMERIC_STRUCTURES

CC1=C(/C=C/C(C)=C/C=C/C(C)=C/C=C/C=C(C)/C=C/C=C(C)/C=C/C2=C(C)CCCC2(C)C)C(C)(C)CCC1 [β-Caroten, β-carotene]
z-score ([1]; KEGG_APOPTOSIS): −0.5665 | z-score ([1]; KEGG_BASE_EXCISION_REPAIR): −1.4296 | Genes up and downregulation in pathway ([1]; KEGG_CELL_CYCLE): − | z-score ([1]; KEGG_CELL_CYCLE): −2.4656 | z-score ([1]; KEGG_CIRCADIAN_RHYTHM_MAMMAL): −1.209 | z-score ([1]; KEGG_FATTY_ACID_BIOSYNTHESIS): −0.6185 | z-score ([1]; KEGG_FATTY_ACID_DEGRADATION): −1.0292 | z-score ([1]; KEGG_GLYCOLYSIS_GLUCONEOGENESIS): −1.0754 | z-score ([1]; KEGG_NF_KAPPA_B_SIGNALING_PATHWAY): 3.1522 | Genes up and downregulation in pathway [1, 4]: − | z-score [1, 4]: −1.5901 | z-score ([1]; KEGG_OXIDATIVE_PHOSPHORYLATION): 3.5721 | Genes up and downregulation in pathway ([1]; KEGG_P53_SIGNALING_PATHWAY): − | z-score ([1]; KEGG_P53_SIGNALING_PATHWAY): −1.6942 | z-score ([1]; KEGG_PROTEASOME): 1.1865 | z-score ([1]; KEGG_RETINOL_METABOLISM): −0.6377 | Genes up and downregulation in pathway [1, 5]: − | z-score [1, 5]: −2.818 | z-score ([1]; KEGG_SPHINGOLIPID_METABOLISM): −0.4773 | z-score ([1]; KEGG_TH1_AND_TH2_CELL_DIFFERENTIATION): 1.3936 | z-score ([1]; KEGG_TIGHT_JUNCTION): −0.07358 | z-score ([1]; KEGG_TNF_SIGNALING_PATHWAY): 5.6735 | z-score ([1]; KEGG_T_CELL_RECEPTOR_SIGNALING_PATHWAY): 1.5111 | z-score ([1]; KEGG_WNT_SIGNALING_PATHWAY): −1.5459 | z-score ([1]; WIKI_ACTIVATION_OF_MATRIX_METALLOPROTEINASES): 0.8244 | Genes up and downregulation in pathway [1, 6]: − | z-score [1, 6]: −5.9295 | z-score ([1]; WIKI_COLLAGEN_BIOSYNTHESIS_AND_MODIFYING_ENZYMES): 4.7943 | regulation of collagen synthesis and extracellular matrix pathways (Z-Score heatmap, in words) ([1]; WIKI_COLLAGEN_BIOSYNTHESIS_AND_MODIFYING_ENZYMES, WIKI_EXTRACELLULAR_MATRIX_ORGANIZATION, WIKI_DEGRADATION_OF_THE_EXTRACELLULAR_MATRIX, WIKI_COLLAGEN_DEGRADATION, WIKI_ASSEMBLY_OF_COLLAGEN_FIBRILS_AND_OTHER_MULTIMERIC_STRUCTURES): very much down regulated | z-score ([1]; WIKI_COLLAGEN_DEGRADATION): −5.0219 | z-score ([1]; WIKI_DEGRADATION_OF_THE_EXTRACELLULAR_MATRIX): 4.6457 | Genes up and downregulation in pathway ([1]; WIKI_ELASTIC_FIBRE_FORMATION): − | z-score ([1]; WIKI_ELASTIC_FIBRE_FORMATION): −2.0745 | z-score ([1]; WIKI_ELECTRON_TRANSPORT_CHAIN_IN_MITOCHONDRIA): 2.7536 | z-score ([1]; WIKI_EXTRACELLULAR_MATRIX_ORGANIZATION): 4.5653 | Genes up and downregulation in pathway ([1]; WIKI_KERATINIZATION): + | z-score ([1]; WIKI_KERATINIZATION): 6.3972 | z-score ([1]; WIKI_NRF2_PATHWAY): 1.7004 | z-score ([1]; WIKI_RESPIRATORY_ELECTRON_TRANSPORT_ATP_SYNTHESIS): 2.2177 | z-score ([1]; WIKI_SPHINGOLIPID_METABOLISM): −0.9459 | Up-Regulated Genes (number) ([1]; 19254 genes evaluated): 196 | Up-Regulated Genes (number) ([1]; second column of Table 6): 503 | TNFα concentration as % of the irradiated skin explant [2]: 70% | increase in IL-1α secretion compared to the control [3]: 20%
